Results reported in patent US9486524B2, “Composition for eliciting a specific CTL response, comprising a lympho-ablative compound and a molecule that contains antigenic sequences and targets professional antigen presenting cells” (priority 2006, dated 2016).

Legend:
Assay type in all cases: in vivo, C57BL/6 mice
MCa32A cells = assay: Tumor rejection model, MC38 murine colon adenocarcinoma cells expressing CEA (Example 2)
Description: (§1) Blood sampling was performed by tail bleeding.
MC32aCEA cells expressing CEA protein were obtained from Pr. W. Zimermann (LTI, Munich). These cells are derived from the MC38 murine colon adenocarcinoma (48).

[1] = tested on: CD4, CD8 and B220 cells in the spleen and lymph nodes; assay: Lymphocyte depletion in lymphoid organs, phenotyping of spleen and lymph nodes (Example 1, Table 1); details: 10 days after onset of immunosuppressive treatment; ATG 20 mg/kg single ip, fludarabine 200 mg/kg/day ip 6 days
Description: as §1
Blood, lymph node cells and splenocytes were processed according to previously described methods (28, 29) for numeration and flow cytometry assited phenotyping. Blood lymphocytes were counted using Türk blue.
The blood compartment represents only 1 to 2% on the total body lymphoid mass. Lymphocyte depletion by phenotyping for T and B cells, spleen and lymph nodes 10 days after onset of immunosuppression has been monitored. Similarly to the situation in the blood compartment, ATG- and fludarabine-based immunosuppressive therapies induced a depletion of the T lymphocyte pool in lymphoid organs (Table 1).
Peripheral lymphoid organs were sampled 10 days after onset of immunosuppressive treatment administration. Values presented are the percentages of CD4, CD8 and B220 cells observed in the spleen and lymph nodes.

[2] = tested on: CD4, CD8, CD49d and B220 cells in the spleen and maxillary lymph nodes; assay: Lymphocyte depletion in lymphoid organs, phenotyping of spleen and maxillary lymph nodes (Example 2, Table 2); details: 14 days after onset of treatment, ATG 20 mg/kg single ip, Fludarabine 100 mg/kg/day ip 6 days
Description: as §1
(§2) Blood, lymph node cells and splenocytes were processed according to previously described methods (28, 29) for numeration and flow cytometry assisted phenotyping. Blood lymphocytes were counted using Trypan blue.
The blood compartment represents only 1 to 2% on the total body lymphoid mass. The Inventors therefore monitored lymphocyte depletion by phenotyping for T and B cells, spleen and lymph nodes 14 days after onset of immunosuppression. Compared to controls (PBS and NRS) Fludarabine- and ATG-based immunosuppressive therapies induced modifications of lymphocyte proportion in lymphoid organs (Table 2).
Peripheral lymphoid organs were sampled 14 days after onset of immunosuppressive treatment administration. Values presented are the percentages of CD4, CD8, CD49d and B220 cells observed in the spleen and maxillary lymph nodes, and the absolute values of CD4, CD8, CD49d and B220 by reference to the number of lymphocytes contained in each organ.

[3] = tested on: peripheral blood lymphocytes (CD4+, CD8+, CD49d+ and B220+); assay: Peripheral blood lymphocyte depletion induced by immunosuppressive treatment (Example 2); details: after onset of treatment; Fludarabine 100 mg/kg/day ip for 6 days
Description: Kinetic of the number of lymphocytes (CD4+, CD8+, CD49d+ and B220+) in peripheral blood following i.p. injection of 100 mg/kg/day Fludarabine for 6 days or following a single i.p. injection of 20 mg/kg ATG. Controls are injected with PBS or with 20 mg/kg of normal rabbit serum (NRS)
as §1, §2
Mouse ATG were prepared by injecting a rabbit sc with 5×10^8 thymocytes sampled on 6-weeks old C57BL/6 mice. This immunization was boosted 14 days later with an iv injection of identical material. Seven days later the animal was bled and serum IgG were purified on immobilized protein G column (Pierce). Purity was controlled by SDS PAGE analysis and quantity was estimated by the Bradford method with known concentration rabbit IgG as standards. Rabbit ATG was used at a concentration of 20 mg/kg with a single injection. As a control, normal rabbit serum was used.
Fludarabine (Sigma) was used at a concentration of 100 mg/kg/day for 6 days. Monoclonal antibodies: anti-CD4-APC, anti-CD8-PerCP, anti-B220-FITC and anti-CD49d (Pan NK)-PE were obtained from BD Biosciences.

[4] = tested on: CEA-specific IFN-γ producing CD8+ cells; assay: γ-IFN ELISpot assay of CEA-specific CD8+ cells after immunization (Example 2)
Description: […] Seven days after last immunization, CEA-specific IFN-γ producing CD8+ cells were detected by ex vivo ELISpot assay using 1 μg/ml CEA pepscan. Data are expressed as the median numbers of γ-IFN spot forming colonies, SFC (n=3).
ATG- or Fludarabine-based immunosuppressive treatments were applied to animals 7 days prior to prime boost immunization with recombinant proteins. Immunizations performed iv with equimolar amounts of indicated recombinant proteins (50 μg for CyaAs, 19.2 μg for His-tag CEA) in presence of 10 μg CpG, were boosted id 7 days later with 10 μg of similar material (3.8 μg for His-tag CEA) and 2 μg of CpG. Seven days after last immunization, CEA-specific IFN-γ producing CD8+ cells were detected by ex vivo ELISpot assay using 1 μg/ml CEA pepscan. Data are expressed as the median numbers of γ-IFN spot forming colonies, SFC (n=2).
Multiscreen filtration plates (96 wells; Millipore, France) were coated with 4 μg/ml of rat anti-mouse gamma interferon (IFN-γ) antibody (clone R4-6A2; PharMingen, San Diego, Calif.), overnight at room temperature. Spleen cells from immunized mice were added to the wells and incubated for 20 h with or without CEA pepscan at 1 μg/ml. […] The number of γ-IFN producing cells was determined by counting the number of spot-forming colonies (SFC) in each well (C.T.L., Germany), and the results were expressed as number of SFC per 1×10^6 splenocytes (20).

Nc1nc(F)nc2c1ncn2[C@@H]1O[C@H](CO)[C@@H](O)[C@@H]1O [Fludarabine]
size of tumors relative to the other groups (smaller) (MCa32A cells; at the time of CyaA-based immunotherapy): 20 times
survival median of mock-treated animals (MCa32A cells; immunosuppressive treatment 3 days after tumor inoculation, no CEA immunization): 21 to 25 days
percentage of B220+ cells, Lymph nodes [1]: 32.4%
percentage of B220+ cells, Spleen [1]: 54.3%
percentage of CD4+ cells, Lymph nodes [1]: 37.8%
percentage of CD4+ cells, Spleen [1]: 21.9%
percentage of CD8+ cells, Lymph nodes [1]: 20.8%
percentage of CD8+ cells, Spleen [1]: 5.3%
B220+ absolute value, Spleen [2]: 8 10^6 cells/ml
B220+ percentage, Spleen [2]: 42.4%
CD4+ absolute value, Spleen [2]: 3.8 10^6 cells/ml
CD4+ percentage, Spleen [2]: 20.4%
CD8+ absolute value, Spleen [2]: 2.5 10^6 cells/ml
CD8+ percentage, Spleen [2]: 13.4%
CD49d+ absolute value, Spleen [2]: 1.4 10^6 cells/ml
CD49d+ percentage, Spleen [2]: 7.5%
B220+ absolute value, Lymph nodes ([2]; maxillary lymph nodes): 0.3 10^6 cells/ml
B220+ percentage, Lymph nodes ([2]; maxillary lymph nodes): 30.2%
CD4+ absolute value, Lymph nodes ([2]; maxillary lymph nodes): 0.3 10^6 cells/ml
CD4+ percentage, Lymph nodes ([2]; maxillary lymph nodes): 31.3%
CD8+ absolute value, Lymph nodes ([2]; maxillary lymph nodes): 0.3 10^6 cells/ml
CD8+ percentage, Lymph nodes ([2]; maxillary lymph nodes): 35.3%
CD49d+ absolute value, Lymph nodes ([2]; maxillary lymph nodes): 0.03 10^6 cells/ml
CD49d+ percentage, Lymph nodes ([2]; maxillary lymph nodes): 3.8%
time for T cell values to return to control groups [3]: ≤ 7 days

B1: His-Tag-CEA: histidine-tagged full length CEA protein, used as control, formulated with CpG (protein, UniProt P06731 1-702, looked up)
chain: MESPSAPPHRWCIPWQRLLLTASLLTFWNPPTTAKLTIESTPFNVAEGKEVLLLVHNLPQHLFGYSWYKGERVDGNRQIIGYVIGTQQATPGPAYSGREIIYPNASLLIQNIIQNDTGFYTLHVIKSDLVNEEATGQFRVYPELPKPSISSNNSKPVEDKDAVAFTCEPETQDATYLWWVNNQSLPVSPRLQLSNGNRTLTLFNVTRNDTASYKCETQNPVSARRSDSVILNVLYGPDAPTISPLNTSYRSGENLNLSCHAASNPPAQYSWFVNGTFQQSTQELFIPNITVNNSGSYTCQAHNSDTGLNRTTVTTITVYAEPPKPFITSNNSNPVEDEDAVALTCEPEIQNTTYLWWVNNQSLPVSPRLQLSNDNRTLTLLSVTRNDVGPYECGIQNELSVDHSDPVILNVLYGPDDPTISPSYTYYRPGVNLSLSCHAASNPPAQYSWLIDGNIQQHTQELFISNITEKNSGLYTCQANNSASGHSRTTVKTITVSAELPKPSISSNNSKPVEDKDAVAFTCEPEAQNTTYLWWVNGQSLPVSPRLQLSNGNRTLTLFNVTRNDARAYVCGIQNSVSANRSDPVTLDVLYGPDTPIISPPDSSYLSGANLNLSCHSASNPSPQYSWRINGIPQQHTQVLFIAKITPNNNGTYACFVSNLATGRNNSIVKSITVSASGTSPGLSAGATVGIMIGVLVGVALI
modifications: full-length His tag
notes: histidine-tagged full length CEA protein, used as control, formulated with CpG
CEA-specific cellular immune responses upon immunization after immunosuppressive treatment ([4]; compared with CyaA-CEAA3B3 + CpG, prime-boost with CpG): Lower CEA-specific cellular immune responses were detected
cellular immune response characterized by γ-IFN secretion ([4]; one single iv administration, with CpG adjuvant, no immunosuppression): neither CyaAΔ-CEAA3B3 nor His-tag-CEA protein formulated with an adjuvant such as CpG, were able to mount a cellular immune response
